Structures can show the parent of a compound that is named as a salt. ± gives the standard error.
Columns and labels:
621-102 (TSC2-deficient) = test: relative viability vs DMSO; higher = less cytotoxic; settings: serum: 10% FBS, 72 h
621-103 (TSC2-rescued) = test: as above; settings: serum: 10% FBS, 72 h
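Note: immortalized renal angiomyolipoma cells stably carrying empty vector or TSC2, dosed in 384-well plates in DMEM, viability normalized to vehicle-treated wells within each plate.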

Structure (SMILES) | relative viability (621-102 (TSC2-deficient); 0.0001 µM) | relative viability (621-102 (TSC2-deficient); 0.001 µM) | relative viability (621-102 (TSC2-deficient); 0.01 µM) | relative viability (621-102 (TSC2-deficient); 0.1 µM) | relative viability (621-102 (TSC2-deficient); 1 µM) | relative viability (621-102 (TSC2-deficient); 10 µM) | relative viability (621-103 (TSC2-rescued); 0.0001 µM) | relative viability (621-103 (TSC2-rescued); 0.001 µM) | relative viability (621-103 (TSC2-rescued); 0.01 µM) | relative viability (621-103 (TSC2-rescued); 0.1 µM) | relative viability (621-103 (TSC2-rescued); 1 µM) | relative viability (621-103 (TSC2-rescued); 10 µM)
CN(C)C(=O)C(CCN1CCC(O)(c2ccc(Cl)cc2)CC1)(c1ccccc1)c1ccccc1 [Loperamide HCl] | 112.8 ± 0.39% | 107 ± 1.7% | 99.2 ± 2.1% | 109 ± 4.1% | 106 ± 4.2% | 82.5 ± 1.3% | 91.7 ± 4.4% | 84.8 ± 2.2% | 97.2 ± 1.4% | 98.2 ± 1.8% | 92.17 ± 0.64% | 59.5 ± 0.85%
CC(C)(C)Cn1c(N)nc2ccc(-c3[nH]c(C(C)(C)C)nc3-c3ccc(F)cc3)nc21 | 100 ± 4.4% | 99.6 ± 4.4% | 100 ± 2.6% | 107 ± 4.4% | 99.1 ± 3.6% | 95.24 ± 0.28% | 94.2 ± 2.7% | 98.1 ± 2.3% | 97.1 ± 3.8% | 95.4 ± 1.8% | 93.7 ± 0.94% | 78.75 ± 0.41%
N#CC1(c2ccc(NC(=O)c3cccnc3NCc3ccncc3)cc2)CCCC1 [Apatinib] | 101 ± 3.1% | 109.9 ± 0.77% | 111.8 ± 0.42% | 111 ± 4.4% | 102 ± 4.9% | 101.34 ± 0.059% | 111.1 ± 1.1% | 103 ± 3.9% | 110 ± 2.4% | 107 ± 2.4% | 107 ± 7.4% | 103.7 ± 0.61%
CC1(C)CC(=O)c2c(C(F)(F)F)nn(-c3ccc(C(N)=O)c(N[C@H]4CC[C@H](OC(=O)CN)CC4)c3)c2C1 | 63.2 ± 4.8% | 65.7 ± 8% | 36.9 ± 4.2% | 18.7 ± 2.5% | 13.6 ± 2.5% | 17 ± 1.1% | 108 ± 4.1% | 111.5 ± 0.33% | 82.7 ± 3.9% | 7.92 ± 0.44% | 6.41 ± 0.23% | 7.58 ± 0.32%
O=C1NC(=O)/C(=C\c2ccc3nccnc3c2)S1 | 106 ± 1.9% | 114 ± 1.2% | 120.5 ± 1.1% | 108 ± 7.8% | 105.2 ± 0.38% | 110 ± 3.2% | 100.2 ± 0.99% | 96.5 ± 2.7% | 98.02 ± 0.75% | 100 ± 1.5% | 99.5 ± 1.9% | 98.8 ± 1.3%
CN1CCN(C2=Nc3cc(Cl)ccc3Nc3ccccc32)CC1 [Clozapine] | 100 ± 1.7% | 108 ± 1.1% | 105.2 ± 0.32% | 104 ± 2.2% | 94.53 ± 0.49% | 98.1 ± 3.2% | 101.3 ± 0.79% | 113 ± 2.2% | 109 ± 1.1% | 105 ± 0.64% | 109 ± 0.24% | 92.73 ± 0.46%
CNC(=O)c1cc(Oc2ccc(NC(=O)Nc3ccc(Cl)c(C(F)(F)F)c3)c(F)c2)ccn1 [BAY 73-4506 (Regorafenib)] | 109 ± 1.5% | 93.9 ± 5.3% | 99.5 ± 0.71% | 98.4 ± 2.8% | 102 ± 1.4% | 88.2 ± 1.8% | 98.01 ± 0.19% | 99.11 ± 0.79% | 99.9 ± 2.3% | 102 ± 1.6% | 100 ± 1.8% | 63.55 ± 0.47%
Oc1ccc([C@@H]2Oc3ccc(O)cc3[C@@H]3CCC[C@@H]32)cc1 | 120.08 ± 0.051% | 124 ± 1.3% | 105 ± 1.5% | 108 ± 2.7% | 113 ± 5.1% | 65.5 ± 4% | 106 ± 1.5% | 101.57 ± 0.083% | 103 ± 1.1% | 106 ± 2.1% | 103.1 ± 0.19% | 66.2 ± 5.5%
O=C1NC(=O)C(c2ccccc2)(c2ccccc2)N1 [Phenytoin] | 109 ± 0.34% | 119 ± 4.6% | 101 ± 3% | 105 ± 1.9% | 97.4 ± 5% | 99.7 ± 1.3% | 105 ± 3.8% | 106 ± 6.7% | 100.3 ± 0.63% | 106 ± 4.5% | 101 ± 3% | 101 ± 7.8%
C[C@@H]1CN(CC(=O)Nc2ccc3c(c2)Cc2cccc(-c4cc(=O)cc(N5CCOCC5)o4)c2S3)C[C@H](C)O1 | 101 ± 1.9% | 96.34 ± 0.66% | 96.06 ± 0.86% | 97.1 ± 2.1% | 97.3 ± 1.5% | 65.9 ± 0.85% | 79.7 ± 1.1% | 86 ± 3.5% | 83 ± 0.38% | 84.6 ± 1% | 77.8 ± 3.1% | 59.4 ± 5.5%
CC(C)(C)C#Cc1cc(N(C(=O)[C@H]2CC[C@H](C)CC2)[C@H]2CC[C@H](O)CC2)c(C(=O)O)s1 [VX-222] | 109 ± 1.1% | 117.11 ± 0.037% | 111 ± 2% | 111 ± 1.3% | 103 ± 4.3% | 106 ± 4.4% | 105.5 ± 0.52% | 102.7 ± 0.81% | 100 ± 1.2% | 99.76 ± 0.98% | 104 ± 4.7% | 105.42 ± 0.075%
Cc1nc(=O)c2cc(CN(C)c3ccc(C(=O)N[C@@H](CCC(=O)O)C(=O)O)s3)ccc2[nH]1 [Raltitrexed (Tomudex)] | 86.7 ± 3.5% | 92.8 ± 1.6% | 107 ± 1.7% | 103.6 ± 0.8% | 92.5 ± 1.6% | 80.3 ± 1.2% | 99.1 ± 5.1% | 97.1 ± 4.5% | 115 ± 4.2% | 113 ± 1.8% | 102.7 ± 0.7% | 96.3 ± 3.2%
O=C1NC(=O)/C(=C/c2ccc3c(c2)OC(F)(F)O3)S1 | 104 ± 2.5% | 97.7 ± 4.8% | 102 ± 1.9% | 104.3 ± 0.58% | 100.2 ± 0.23% | 102.4 ± 0.35% | 98.2 ± 7.7% | 91.4 ± 7.6% | 90.7 ± 1.1% | 95.5 ± 2.7% | 98.1 ± 6.7% | 88.49 ± 0.37%
COc1cc2ncnc(-n3nc(-c4ccccn4)nc3N)c2cc1OC | 101 ± 1.5% | 103 ± 2.7% | 107 ± 2.2% | 98.84 ± 0.53% | 94.28 ± 0.36% | 49.6 ± 1.6% | 106 ± 1.7% | 107 ± 2.5% | 109 ± 4% | 108.3 ± 0.77% | 110.4 ± 0.79% | 48.2 ± 3.8%
NCCCC(O)(P(=O)(O)O)P(=O)(O)O [Alendronate Sodium] | 99.4 ± 1.2% | 103 ± 1.3% | 103 ± 2.7% | 99.1 ± 5.1% | 99 ± 3.1% | 104.6 ± 0.43% | 98.7 ± 3.1% | 102 ± 1.5% | 101 ± 4.5% | 105.54 ± 0.079% | 104 ± 3.5% | 105 ± 2.9%
Cn1c(CNc2ccc(C(=N)N)cc2)nc2cc(C(=O)N(CCC(=O)O)c3ccccn3)ccc21 [BIBR 953] | 64.4 ± 4.5% | 77.2 ± 5.6% | 90.2 ± 2.2% | 88.6 ± 4.5% | 82.7 ± 9.1% | 81 ± 4.6% | 78 ± 9% | 76.5 ± 10% | 82.8 ± 11% | 94.1 ± 7.3% | 88.3 ± 6.7% | 91.3 ± 4.6%
Cc1ccc(C(=O)N(CCCN)[C@@H](c2oc3cc(Cl)ccc3c(=O)c2Cc2ccccc2)C(C)C)cc1 | 61.7 ± 2.2% | 67.7 ± 4.4% | 75.95 ± 0.11% | 69.9 ± 1.3% | 80.2 ± 2.9% | 1.36 ± 0.19% | 40.45 ± 0.2% | 46.1 ± 0.55% | 59.1 ± 2% | 50.6 ± 1.8% | 47.3 ± 5.6% | 1.36 ± 0.14%
O=C1NC(=O)/C(=C/c2ccc(-c3ccc(F)cc3O)o2)S1 | 111 ± 2.5% | 109 ± 2.8% | 102 ± 1.2% | 96.7 ± 3.6% | 106 ± 2.1% | 90.8 ± 2.4% | 92.9 ± 9.3% | 95.3 ± 2.2% | 96.95 ± 0.74% | 101 ± 5.6% | 88.2 ± 2% | 108 ± 3.4%

— the supplement of paper PMC8960247
